Read-outs that look alike come from different tables or passages of the source.
What was measured:
[1] = test system: PC12 cells expressing G93A SOD1-YFP; format: cell-based
[2] = mice, 50 mg/kg peritoneally, 1 h after injection
[3] = Sprague-Dawley rats, in PBS
in vivo = settings: Sprague-Dawley, rat, iv, 1 mg/kg
G85R SOD1 = assay: High content G85R-SOD1 aggregation assay; format: cell-based
[4] = test system: 68 in vitro radioligand binding assays; settings: 10 μM, in duplicate, 68 assays

Compound: COc1cc(=O)n(CCc2ccccc2)c(=O)n1CCc1ccccc1 [Compound 47, 6-methoxy-1,3-diphenethylpyrimidine-2,4(1H,3H)-dione]
- activity in cytotoxicity protection assay [1]: inactive

Compound: CCCCN1C(=O)CC(=O)NC1=O [Compound 1, 1-Butylpyrimidine-2,4,6(1H,3H,5H)-trione]
- activity in cytotoxicity protection assay [1]: no activity

Compound: O=C1C(=O)N(CCc2ccccc2)C(=O)N1CCc1ccccc1 [Compound 49, 1,3-Diphenethylimidazolidine-2,4,5-trione]
- activity in cytotoxicity protection assay [1]: none was active

Compound: O=C1C(=O)N(C2CCCCC2)C(=O)N1C1CCCCC1 [Compound 51, 1,3-Dicyclohexylimidazolidine-2,4,5-trione]
- activity in cytotoxicity protection assay [1]: none was active

Compound: O=c1cc(Cl)n(CCc2ccccc2)c(=O)n1CCc1ccccc1 [Compound 46, 6-chloro-1,3-diphenethylpyrimidine-2,4(1H,3H)-dione]
- activity in cytotoxicity protection assay [1]: inactive

Compound: O=C1CC(=O)N(CCc2ccccc2)C(=O)N1CCc1ccccc1 [Compound 7, 1,3-Diphenethylpyrimidine-2,4,6(1H,3H,5H)-trione]
- blood level [2]: 150 µM
- brain level [2]: 50 µM
- AUC/Dose ([3]; 1 mg/kg i.v.): 126 ng · h/mL/dose
- AUC/Dose ([3]; 1 mg/kg p.o.): 124 ng · h/mL/dose
- clearance (in vivo): 133 mL/min/kg
- reduction in aggregates, fluorescence images (G85R SOD1; cells treated with MG132 plus 10 μM compound): significant reduction in aggregates
- reduction in the number of aggregates of G85R SOD1 (G85R SOD1; dose dependence): concentration dependent
- inhibitory effect across profiling screen [4]: No significant inhibitory effect

Compound: O=C1CC(=O)N(CCN2CCOCC2)C(=O)N1CCc1ccc(F)cc1 [Compound 34, 1-(4-Fluorophenethyl)-3-(2-morpholinoethyl)pyrimidine-2,4,6(1H,3H,5H)-trione]
- activity in cytotoxicity protection assay [1]: inactive

Compound: O=C1CC(=O)N(C2CCCCC2)C(=O)N1 [Compound 2, 1-Cyclohexylpyrimidine-2,4,6(1H,3H,5H)-trione]
- activity in cytotoxicity protection assay [1]: no activity

Compound: O=C1CCC(=O)N(CCc2ccccc2)C(=O)N1CCc1ccccc1 [Compound 52, 1,3-Diphenethyl-1,3-diazepane-2,4,7-trione]
- activity in cytotoxicity protection assay [1]: none was active

Reference: publication PMC3074252 (Journal of medicinal chemistry, 2011)
